Laboratory results: patent US11779577B2, “Nonselective metabotropic glutamate receptor activators for treatment of anorexia nervosa and binge eating disorder” (The Children's Hospital of Philadelphia, priority 2016, dated 2023)

Assays:
[1] = system: group I and group II/III mGluRs; conditions: in vitro studies (Hirouchi 2000); cited from earlier work
[2] = system: dementia-related cognitive impairment; conditions: cited from earlier work
ADHD = experiment: open-label Phase Ib clinical trial in adolescent ADHD subjects with CNV in an mGluR network gene; format: in vivo, human
Method: Previously, an open-label Phase Ib clinical trial was conducted to study the safety, pharmacokinetics, and efficacy of fasoracetam (fasoracetam monohydrate) in adolescent subjects between the ages of 12 and 17 previously diagnosed with ADHD. Each of the study subjects in this clinical trial had one or more CNV in an mGluR network gene.

[3] = prior human studies; cited from earlier work
[4] = system: adenylate cyclase activity; conditions: cited from earlier work
pediatric ADHD subjects = conditions: compared to a placebo control; cited from earlier work

O=C1CC[C@H](C(=O)N2CCCCC2)N1 [fasoracetam]
stimulation of mGluRs [1]: stimulate both group I and group II/III mGluRs
safety and tolerability ([2]; Phase I-III trials, dementia-related cognitive impairment): generally safe and well tolerated
effects on psychiatric symptoms ([2]; Phase III data, cerebral infarct patients and adult dementia patients with cerebrovascular diseases): beneficial effects
efficacy in dementia ([2]; Phase III trials): did not show sufficient efficacy
treatment of ADHD (ADHD; adolescent subjects ages 12 to 17 with one or more CNV in an mGluR network gene): successfully treated
appetite (ADHD; children tested in the ADHD clinical study): appetite was observed to be improved
bioavailability [3]: 79%-97%
half-life [3]: 5 to 6.5 h
adenylate cyclase activity through group II and III mGluRs ([4]; by stimulating group II and III mGluRs (Oka 1997)): may also inhibit adenylate cyclase activity
adenylate cyclase activity through group I mGluRs ([4]; through activation of group I mGluRs (Oka 1997)): may stimulate adenylate cyclase activity

NC(=O)CN1CCCC1=O [piracetam]
ADHD symptoms (pediatric ADHD subjects): increase ADHD symptoms
